In patent publication US8791266B2, “Thyroid hormone β receptor agonist” (Mitsubishi Tanabe Pharma Corporation, priority 2009, dated 2014):

Tests used:
[1] = target: T1, Human Thyroid Hormone Receptor α1 (TRα1) (Homo sapiens, UniProt P10827); test: Transcription activation test of human thyroid hormone receptor α1 (luciferase reporter in 293T cells); format: cell-based; conditions: ratio TRα/TRβ of the transcription activation EC50 values
T1 construct: expressed in transfected cells; host or cells: 293T cells
T1 sequence (P10827 1-410 isoform P10827-2): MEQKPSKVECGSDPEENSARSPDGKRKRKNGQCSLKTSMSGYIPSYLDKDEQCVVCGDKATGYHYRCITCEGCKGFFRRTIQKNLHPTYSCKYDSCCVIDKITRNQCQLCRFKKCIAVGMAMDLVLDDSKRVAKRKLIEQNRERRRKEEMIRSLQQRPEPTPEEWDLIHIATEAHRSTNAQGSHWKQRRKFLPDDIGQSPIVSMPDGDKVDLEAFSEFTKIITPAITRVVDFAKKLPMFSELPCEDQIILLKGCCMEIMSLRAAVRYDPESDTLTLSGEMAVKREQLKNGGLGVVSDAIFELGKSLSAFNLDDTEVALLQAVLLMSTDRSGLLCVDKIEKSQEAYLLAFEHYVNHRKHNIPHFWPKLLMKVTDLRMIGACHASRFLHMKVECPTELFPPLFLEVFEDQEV
From the text: (§1) Transcription Activation Test of Human Thyroid Hormone Receptors α1 (TRα1) and β1 (TRβ1)
(§2) pcDNA3.1 vector (manufactured by Invitrogen) that expresses TRα1 or β1 cloned from human liver-derived cells, and firefly luciferase expression vector pDR4-LuC (manufactured by Stratagene) having a thyroid hormone response sequence to be a reporter were transfected into 293T cells cultured in Dulbecco's modified Eagle medium (DMEM) containing 10% of activated carbon/dextran-treated fetal bovine serum (FBS) by using Lipofectamine2000 (manufactured by Invitrogen). After 16 hr, the cells were plated again in a 96 well plate, and the medium was exchanged with DMEM containing 0.1% activated carbon/dextran-treated FBS. After 3 more hr, a compound diluted with dimethyl sulfoxide solution was added, and the luciferase activity after 24 hr was measured.
(§3) As a positive control, 3,3′,5-triiodo-L-thyronine (T3), which is a biological ligand, was used. The transcription activation action of the compound on TRα1 and TRβ1 was shown by each EC50 value and the maximum luciferase activity value relative to the maximum luciferase activity value of T3 as 100.

[2] = target: T2, Human Thyroid Hormone Receptor β1 (TRβ1) (Homo sapiens, UniProt P10828); test: Transcription activation test of human thyroid hormone receptor β1 (luciferase reporter in 293T cells); format: cell-based; conditions: EC50 of transcription activation on TRβ1, 293T cells, luciferase activity after 24 hr; read-out: TRβ
T2 construct: expressed in transfected cells; host or cells: 293T cells
T2 sequence (P10828 1-461): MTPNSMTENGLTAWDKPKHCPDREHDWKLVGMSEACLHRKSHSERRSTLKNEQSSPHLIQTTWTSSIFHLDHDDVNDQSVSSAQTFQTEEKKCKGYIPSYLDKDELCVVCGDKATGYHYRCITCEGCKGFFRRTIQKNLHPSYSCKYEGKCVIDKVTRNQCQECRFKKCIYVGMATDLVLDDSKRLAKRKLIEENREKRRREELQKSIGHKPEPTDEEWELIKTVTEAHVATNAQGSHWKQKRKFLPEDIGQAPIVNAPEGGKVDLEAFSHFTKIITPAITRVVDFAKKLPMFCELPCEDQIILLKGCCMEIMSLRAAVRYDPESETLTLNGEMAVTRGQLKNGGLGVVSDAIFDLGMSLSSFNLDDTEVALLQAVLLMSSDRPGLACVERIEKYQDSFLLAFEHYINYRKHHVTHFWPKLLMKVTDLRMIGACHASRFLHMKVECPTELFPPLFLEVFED
From the text: as §1, §2, §3

For `Cc1cc(NC(=O)C(=O)O)cc(C)c1Cc1ccc(O)c(C2CCCCC2)n1` [Example 19, ({4-[(6-cyclohexyl-5-hydroxypyridin-2-yl)methyl]-3,5-dimethylphenyl}amino)(oxo)acetic acid], the “selectivity (TRα/TRβ)” value [1] was “B (2<(TRα/TRβ)<5)” and the EC50 [2] was 5 nM.

For `Cc1cc(NC(=O)CC(=O)O)c(C)c(C)c1Cc1ccc(O)c(C2CCCCC2)n1` [Example 24, 3-({4-[(6-cyclohexyl-5-hydroxypyridin-2-yl)methyl]-2,3,5-trimethylphenyl}amino)-3-oxopropanoic acid], the “selectivity (TRα/TRβ)” value [1] was “B (2<(TRα/TRβ)<5)” and the EC50 [2] was 30 nM.

For `Cc1cc(OCc2noc(=O)[nH]2)c(C)c(C)c1Cc1ccc(O)c(C(C)C)n1` [Example 31, 3-({4-[(5-hydroxy-6-isopropylpyridin-2-yl)methyl]-2,3,5-trimethylphenoxy}methyl)-1,2,4-oxadiazol-5(4H)-one], the “selectivity (TRα/TRβ)” value [1] was “B (2<(TRα/TRβ)<5)” and the EC50 [2] was 0.2 nM.

In the case of `Cc1cc(OCC(=O)O)cc(C)c1Cc1ccc(O)c(C2CCCCC2)n1` [Example 2, {4-[(6-cyclohexyl-5-hydroxypyridin-2-yl)methyl]-3,5-dimethylphenoxy}acetic acid], the “selectivity (TRα/TRβ)” value [1] is reported as “B (2<(TRα/TRβ)<5)” and the EC50 [2] is reported as 2 nM.

`Cc1cc(OCc2noc(=O)[nH]2)c(C)c(C)c1Oc1ccc(O)c(C(C)C)n1` [Example 36, 3-({4-[(5-hydroxy-6-isopropylpyridin-2-yl)oxy]-2,3,5-trimethylphenoxy}methyl)-1,2,4-oxadiazol-5(4H)-one] was tested, and the “selectivity (TRα/TRβ)” value [1] was “C (2>(TRα/TRβ))” and the EC50 [2] was 3 nM.

With `Cc1cc(OCC(=O)O)c(C)c(C)c1Cc1ccc(O)c(-c2cccc(F)c2)n1` [Example 171, {4-[6-(3-fluoro-phenyl)-5-hydroxy-pyridin-2-ylmethyl]-2,3,5-trimethyl-phenoxy}acetic acid] the “selectivity (TRα/TRβ)” value [1] was “A (5<(TRα/TRβ))” and the EC50 [2] was 2 nM.

In the case of `Cc1cc(OCc2noc(=O)[nH]2)c(F)c(C)c1Cc1ccc(O)c(-c2cccc(N3CCCC3)c2)n1` [Example 206, 3-[(2-fluoro-4-{[5-hydroxy-6-(3-pyrrolidin-1-ylphenyl)pyridin-2-yl]methyl}-3,5-dimethylphenoxy)methyl]-1,2,4-oxadiazol-5(4H)-one], the “selectivity (TRα/TRβ)” value [1] is reported as “A (5<(TRα/TRβ))” and the EC50 [2] is reported as 3 nM.

`Cc1cc(OCC(=O)O)c(F)c(C)c1Cc1ccc(O)c(C(C)C)n1` [Example 11, {2-fluoro-4-[(5-hydroxy-6-isopropylpyridin-2-yl)methyl]-3,5-dimethylphenoxy}acetic acid] was tested, and the “selectivity (TRα/TRβ)” value [1] was “B (2<(TRα/TRβ)<5)” and the EC50 [2] was 1 nM.

`Cc1cc(/C=C/C(=O)O)c(C)c(C)c1Cc1ccc(O)c(C2CCCCC2)n1` [Example 25, (2E)-3-{4-[(6-cyclohexyl-5-hydroxypyridin-2-yl)methyl]-2,3,5-trimethylphenyl}acrylic acid] was tested, and the “selectivity (TRα/TRβ)” value [1] was “C (2>(TRα/TRβ))” and the EC50 [2] was 1 nM.

For `Cc1cc(OCc2noc(=O)[nH]2)cc(C)c1Cc1ccc(O)c(-c2ccc3c(c2)CCCC3)n1` [Example 30, 3-[(4-{[5-hydroxy-6-(5,6,7,8-tetrahydronaphthalen-2-yl)pyridin-2-yl]methyl}-3,5-dimethylphenoxy)methyl]-1,2,4-oxadiazol-5(4H)-one], the “selectivity (TRα/TRβ)” value [1] was “A (5<(TRα/TRβ))” and the EC50 [2] was 2 nM.

For `Cc1cc(OC(C)C(=O)O)cc(C)c1Cc1ccc(O)c(C2CCCCC2)n1` (centres unmarked) [Example 14, 2-{4-[(6-cyclohexyl-5-hydroxypyridin-2-yl)methyl]-3,5-dimethylphenoxy}propanoic acid], the “selectivity (TRα/TRβ)” value [1] was “B (2<(TRα/TRβ)<5)” and the EC50 [2] was 10 nM.

With `Cc1cc(NC(=O)C(=O)O)c(C)c(C)c1Cc1ccc(O)c(C2CCCCC2)n1` [Example 20, ({4-[(6-cyclohexyl-5-hydroxypyridin-2-yl)methyl]-2,3,5-trimethylphenyl}amino)(oxo)acetic acid] the “selectivity (TRα/TRβ)” value [1] was “C (2>(TRα/TRβ))” and the EC50 [2] was 4 nM.

`Cc1cc(NC(=O)CC(=O)O)c(F)c(C)c1Cc1ccc(O)c(C2CCCCCC2)n1` [Example 131, 3-({4-[(6-cycloheptyl-5-hydroxypyridin-2-yl)methyl]-2-fluoro-3,5-dimethylphenyl}amino)-3-oxopropanoic acid] was tested, and the “selectivity (TRα/TRβ)” value [1] was “A (5<(TRα/TRβ))” and the EC50 [2] was 4 nM.

`Cc1cc(CC(=O)O)c(C)c(C)c1Cc1ccc(O)c(C2CCCCC2)n1` [Example 41, {4-[(6-cyclohexyl-5-hydroxypyridin-2-yl)methyl]-2,3,5-trimethylphenyl}acetic acid] was tested, and the “selectivity (TRα/TRβ)” value [1] was “B (2<(TRα/TRβ)<5)” and the EC50 [2] was 4 nM.

With `Cc1cc(OCC(=O)O)c(C)c(C)c1Cc1ccc(O)c(-c2cccc(Cl)c2)n1` [Example 173, (4-{[6-(3-chlorophenyl)-5-hydroxypyridin-2-yl]methyl}-2,3,5-trimethylphenoxy)acetic acid] the “selectivity (TRα/TRβ)” value [1] was “A (5<(TRα/TRβ))” and the EC50 [2] was 0.4 nM.

In the case of `Cc1cc(CC(F)C(=O)O)c(C)c(C)c1Cc1ccc(O)c(C2CCCCC2)n1` (centres unmarked) [Example 136, 3-{4-[(6-cyclohexyl-5-hydroxypyridin-2-yl)methyl]-2,3,5-trimethylphenyl}-2-fluoropropanoic acid], the “selectivity (TRα/TRβ)” value [1] is reported as “C (2>(TRα/TRβ))” and the EC50 [2] is reported as 1 nM.

In the case of `Cc1cc(OCC(=O)O)c(C)c(C)c1Oc1ccc(O)c(C2CCCCC2)n1` [Example 10, {4-[(6-cyclohexyl-5-hydroxypyridin-2-yl)oxy]-2,3,5-trimethylphenoxy}acetic acid], the “selectivity (TRα/TRβ)” value [1] is reported as “B (2<(TRα/TRβ)<5)” and the EC50 [2] is reported as 30 nM.

In the case of `Cc1cc(OC(C)(C)C(=O)O)cc(C)c1Cc1ccc(O)c(C2CCCCC2)n1` [Example 16, 2-{4-[(6-cyclohexyl-5-hydroxypyridin-2-yl)methyl]-3,5-dimethylphenoxy}-2-methylpropanoic acid], the “selectivity (TRα/TRβ)” value [1] is reported as “B (2<(TRα/TRβ)<5)” and the EC50 [2] is reported as 20 nM.

With `Cc1cc(OCc2noc(=O)[nH]2)c(C)c(C)c1Cc1ccc(O)c(C2CCCO2)n1` (centres unmarked) [Example 33, 3-[(4-{[5-hydroxy-6-(tetrahydrofuran-2-yl)pyridin-2-yl]methyl}-2,3,5-trimethylphenoxy)methyl]-1,2,4-oxadiazol-5(4H)-one] the “selectivity (TRα/TRβ)” value [1] was “B (2<(TRα/TRβ)<5)” and the EC50 [2] was 8 nM.

In the case of `CCCOc1cccc(-c2nc(Cc3c(C)cc(OCc4noc(=O)[nH]4)c(F)c3C)ccc2O)c1` [Example 236, 3-{2-fluoro-4-[5-hydroxy-6-(3-propoxy-phenyl)-pyridin-2-ylmethyl]-3,5-dimethyl-phenoxymethyl}-1,2,4-oxadiazol-5(4H)-one], the “selectivity (TRα/TRβ)” value [1] is reported as “A (5<(TRα/TRβ))” and the EC50 [2] is reported as 3 nM.

`COCC1(c2nc(Cc3c(C)cc(OCc4noc(=O)[nH]4)c(F)c3C)ccc2O)CCCCC1` [Example 268, 3-{[2-fluoro-4-({5-hydroxy-6-[1-(methoxymethyl)cyclohexyl]pyridin-2-yl}methyl)-3,5-dimethylphenoxy]methyl}-1,2,4-oxadiazol-5(4H)-one] was tested, and the “selectivity (TRα/TRβ)” value [1] was “B (2<(TRα/TRβ)<5)” and the EC50 [2] was 1 nM.

With `Cc1cc(CCC(=O)O)c(C)c(C)c1Cc1ccc(O)c(C2CCCCC2)n1` [Example 26, 3-{4-[(6-cyclohexyl-5-hydroxypyridin-2-yl)methyl]-2,3,5-trimethylphenyl}propanoic acid] the “selectivity (TRα/TRβ)” value [1] was “C (2>(TRα/TRβ))” and the EC50 [2] was 6 nM.

With `Cc1cc(NC(=O)CC(=O)O)c(Cl)c(C)c1Cc1ccc(O)c(C2CCCCC2)n1` [Example 54] the “selectivity (TRα/TRβ)” value [1] was “A (5<(TRα/TRβ))” and the EC50 [2] was 6 nM.

For `Cc1cc(NC(=O)CC(=O)O)cc(C)c1Cc1ccc(O)c(C2CCCCCC2)n1` [Example 52, 3-({4-[(6-cycloheptyl-5-hydroxypyridin-2-yl)methyl]-3,5-dimethylphenyl}amino)-3-oxopropanoic acid], the “selectivity (TRα/TRβ)” value [1] was “A (5<(TRα/TRβ))” and the EC50 [2] was 6 nM.

For `Cc1cc(OCC(=O)O)c(C)c(C)c1Oc1ccc(O)c(C(C)C)n1` [Example 9, {4-[(5-hydroxy-6-isopropylpyridin-2-yl)oxy]-2,3,5-trimethylphenoxy}acetic acid], the “selectivity (TRα/TRβ)” value [1] was “C (2>(TRα/TRβ))” and the EC50 [2] was 7 nM.
